Values quoted from earlier work as cited in US9492541B2, “Phenylepherine containing dosage form” (SOVEREIGN PHARMACEUTICALS, LLC, priority 2004, dated 2016).

Conditions: oral

SMILES: CNC[C@H](O)c1cccc(O)c1 [phenylepherine]
- period over which a single dose provides a therapeutically effective plasma concentration: 2.5 ± 0.7 h
